Assay results as given in patent publication US8017611B2, “Pyridine and pyrazine derivatives -083” (AstraZeneca AB, priority 2007, dated 2011).
Marks after values point to notes of the source that are not given here.

Each molecule was assayed against T1, recombinant Axl tyrosine kinase (Homo sapiens, UniProt P30530) (assay: In vitro Axl kinase assay (AlphaScreen), Test (a)). Settings: 1 μM; mean calculated from a larger number of replicates than the first value.
T1 construct: encompassing amino acids 473 to 894 of Axl; GST (N); made in house; host or cells: SF126 insect cells
T1 sequence (P30530 473-894): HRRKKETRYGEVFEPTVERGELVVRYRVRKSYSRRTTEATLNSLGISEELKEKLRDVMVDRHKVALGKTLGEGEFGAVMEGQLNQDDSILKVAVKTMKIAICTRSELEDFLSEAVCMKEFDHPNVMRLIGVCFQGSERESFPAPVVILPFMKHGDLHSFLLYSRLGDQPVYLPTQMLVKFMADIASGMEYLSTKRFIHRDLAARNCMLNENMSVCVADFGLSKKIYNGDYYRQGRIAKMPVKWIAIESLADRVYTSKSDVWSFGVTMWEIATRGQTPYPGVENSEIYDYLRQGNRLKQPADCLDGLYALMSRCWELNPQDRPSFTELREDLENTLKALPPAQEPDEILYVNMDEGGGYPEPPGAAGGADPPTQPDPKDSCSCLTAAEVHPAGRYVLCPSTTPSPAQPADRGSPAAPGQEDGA
Type: biochemical
Procedure: Test compounds were prepared as 10 mM stock solutions in dimethylsulphoxide (DMSO) and diluted in DMSO as required. Aliquots (120 nl) of compound dilutions were filled into the wells of a Greiner 384-well low volume (LV) white polystyrene plate (Greiner Bio-one) using acoustic dispensing (Labcyte Echo 550). A 10 μl mixture of recombinant purified Axl enzyme, biotinylated peptide substrate (Biotin poly-GAT; CisBio, Catalogue No. 61GATBLB), 0.2 μM adenosine triphosphate (ATP) and a buffer solution [comprising 20 mM Tris-HCl pH 7.5 buffer, 0.01% v/v Tween, 5 mM dithiothreitol (DTT) and 10 mM manganese chloride] was incubated with the compounds at room temperature for 20 minutes.
Control wells that produced a minimum signal corresponding to 100% inhibited enzyme were created by adding 10 μM of Staurosporine.
The percentage kinase inhibition value is the percentage of Axl tyrosine kinase activity inhibited by the test compound at a concentration of 1 μM.

`Nc1ncc(-c2cccc(N3CCOCC3)c2)cc1-c1nc2ccccc2o1` [Example 2.49] was tested, and the “% Axl tyrosine kinase inhibition at 1 μM concentration (second value, †)” value was 94.5%.

Same assay, conditions: test compound at 1 μM; first value quoted

In order of rising “% Axl tyrosine kinase inhibition at 1 μM concentration” value:
1. Nc1ncc(-c2cccc(N3CCCC3)c2)cc1-c1nc2ccccc2o1 [Example 2.32]  22.4%
2. N#Cc1ccc(-c2cnc(N)c(-c3nc4ccccc4o3)c2)cc1 [Example 2.44]  25.0%
3. Nc1ncc(-c2ccc3[nH]ccc3c2)cc1-c1nc2ccccc2o1 [Example 2.29]  31.3%
4. COCCOc1ccc(-c2cnc(N)c(-c3nc4ccccc4o3)c2)cc1 [Example 2.9]  40.3%
5. N#Cc1cccc(-c2cnc(N)c(-c3nc4ccccc4o3)c2)c1 [Example 2.40]  40.7%
6. Nc1ncc(-c2ccc3c(c2)OCCO3)cc1-c1nc2ccccc2o1 [Example 2.21]  45.4%
7. Nc1ncc(-c2cccc(N3CCCCC3)c2)cc1-c1nc2ccccc2o1 [Example 2.46]  46.4%
8. Nc1ncc(-c2ccnc3ccccc23)cc1-c1nc2ccccc2o1 [Example 2.25]  60.3%
9. NC(=O)c1cccc(-c2cnc(N)c(-c3nc4ccccc4o3)c2)c1 [Example 2.34]  67.3%
10. CNC(=O)c1cccc(-c2cnc(N)c(-c3nc4ccccc4o3)c2)c1 [Example 2.17]  68.9%
11. CCS(=O)(=O)c1cccc(-c2cnc(N)c(-c3nc4ccccc4o3)c2)c1 [Example 2.5]  73.5%
12. COCc1cccc(-c2cnc(N)c(-c3nc4ccccc4o3)c2)c1 [Example 2.15]  80.2%
13. CS(=O)(=O)Oc1cccc(-c2cnc(N)c(-c3nc4ccccc4o3)c2)c1 [Example 2.52]  81.0%
14. CN(C)S(=O)(=O)c1ccc(-c2cnc(N)c(-c3nc4ccccc4o3)c2)cc1 [Example 2.28]  85.1%
15. Nc1ncc(-c2ccc3[nH]ncc3c2)cc1-c1nc2ccccc2o1 [Example 2.23]  87.2%
16. Nc1ncc(-c2cnc3ccccc3c2)cc1-c1nc2ccccc2o1 [Example 2.24]  88.9%
17. CN(C)c1cccc(-c2cnc(N)c(-c3nc4ccccc4o3)c2)c1 [Example 2.50]  90.0%
18. COCc1ccc(-c2cnc(N)c(-c3nc4ccccc4o3)c2)cc1 [Example 2.37]  91.9%
19. N#CCc1ccc(-c2cnc(N)c(-c3nc4ccccc4o3)c2)cc1 [Example 2.51]  93.1%
20. Nc1ncc(-c2cccc(CO)c2)cc1-c1nc2ccccc2o1 [Example 2.35]  93.3%
21. Nc1ncc(-c2cccc(N3CCOCC3)c2)cc1-c1nc2ccccc2o1 [Example 2.49]  93.6%
22. CCS(=O)(=O)c1ccc(-c2cnc(N)c(-c3nc4ccccc4o3)c2)cc1 [Example 2.1]  93.7%
23. Nc1ncc(-c2ccc(CO)cc2)cc1-c1nc2ccccc2o1 [Example 2.16]  94.0%
24. Nc1ncc(-c2ccc(S(=O)(=O)NC3CC3)cc2)cc1-c1nc2ccccc2o1 [Example 2.30]  96.1%
25. CN(C)CCNC(=O)c1cccc(-c2cnc(N)c(-c3nc4ccccc4o3)c2)c1 [Example 2.8]  96.5%
26. CS(=O)(=O)c1cccc(-c2cnc(N)c(-c3nc4ccccc4o3)c2)c1 [Example 2.48]  97.1%
27. CC(=O)Nc1cccc(-c2cnc(N)c(-c3nc4ccccc4o3)c2)c1 [Example 2.20]  97.6%
28. Nc1ncc(-c2cccc(CN3CCOCC3)c2)cc1-c1nc2ccccc2o1 [Example 2.22]  97.9%
29. CS(=O)(=O)Nc1ccc(-c2cnc(N)c(-c3nc4ccccc4o3)c2)cc1 [Example 2.27]  98.0%
30. N#CCc1cccc(-c2cnc(N)c(-c3nc4ccccc4o3)c2)c1 [Example 2.47]  98.0%
31. COCc1ccccc1-c1cnc(N)c(-c2nc3ccccc3o2)c1 [Example 2.36]  98.5%
32. Nc1ncc(-c2ccc(C(=O)N3CCC(O)CC3)cc2)cc1-c1nc2ccccc2o1 [Example 2.11]  98.9%
33. Nc1ncc(-c2cccc(CN3CCCC3)c2)cc1-c1nc2ccccc2o1 [Example 2.6]  99.0%
34. COc1cc(N2CCNCC2)ccc1-c1cnc(N)c(-c2nc3ccccc3o2)c1 [Example 2.38]  99.0%
35. NCc1cccc(-c2cnc(N)c(-c3nc4ccccc4o3)c2)c1 [Example 2.4]  99.1%
36. Nc1ncc(-c2ccc(CN3CCOCC3)cc2)cc1-c1nc2ccccc2o1 [Example 2.7]  99.1%
37. CN(C)CCCOc1ccc(-c2cnc(N)c(-c3nc4ccccc4o3)c2)cn1 [Example 2.26]  99.5%
38. NCc1ccc(-c2cnc(N)c(-c3nc4ccccc4o3)c2)cc1 [Example 2.13]  99.7%
39. Nc1ncc(-c2ccc(N3CCNCC3)cc2)cc1-c1nc2ccccc2o1 [Example 2.14]  99.9%
40. CN(C)CCNC(=O)c1ccc(-c2cnc(N)c(-c3nc4ccccc4o3)c2)cc1 [Example 2.41]  99.9%

For `CN(C)S(=O)(=O)c1cccc(-c2cnc(N)c(-c3nc4ccccc4o3)c2)c1` [Example 2.39], the “% Axl tyrosine kinase inhibition at 1 μM concentration” value was 17.1* %.
`Nc1ncc(-c2ccc3c(c2)OCO3)cc1-c1nc2ccccc2o1` [Example 2.42] was tested, and the “% Axl tyrosine kinase inhibition at 1 μM concentration” value was 15.8** %.
`Nc1ncc(-c2cccc3ccccc23)cc1-c1nc2ccccc2o1` [Example 2.43] was tested, and the “% Axl tyrosine kinase inhibition at 1 μM concentration” value was 9.8*** %.
`CN1CCN(c2cccc(-c3cnc(N)c(-c4nc5ccccc5o4)c3)c2)CC1` [Example 2.53] was tested, and the “% Axl tyrosine kinase inhibition at 1 μM concentration” value was 4.2**** %.

Same assay, conditions: test compound at 1 μM; first value quoted; read-out: % Axl tyrosine kinase inhibition at 1 μM concentration

In order of rising inhibition at 1 µM:
1. Nc1ncc(-c2cnn(C3CCNCC3)c2)cc1-c1nc2ccccc2o1 [Example 2.3, 3-(1,3-Benzoxazol-2-yl)-5-[1-(4-piperidyl)pyrazol-4-yl]pyridin-2-amine]  98.6%
2. CC(C)(C)OC(=O)N1CCC(n2cc(-c3cnc(N)c(-c4nc5ccccc5o4)c3)cn2)CC1 [Example 2.2, tert-butyl 4-[4-[6-amino-5-(1,3-benzoxazol-2-yl)-3-pyridyl]pyrazol-1-yl]piperidine-1-carboxylate]  99.5%
3. Nc1ncc(-c2cccc(N3CCNCC3)c2)cc1-c1nc2ccccc2o1 [Example 2.10, 3-(1,3-Benzoxazol-2-yl)-5-(3-piperazin-1-ylphenyl)pyridin-2-amine]  99.5%
4. CN(C)Cc1ccc(-c2cnc(N)c(-c3nc4ccccc4o3)c2)cc1 [Example 1, 3-Benzoxazol-2-yl-5-[4-(dimethylaminomethyl)phenyl]pyridin-2-amine]  99.8%
5. Nc1ncc(-c2ccc(N3CCNCC3)nc2)cc1-c1nc2ccccc2o1 [Example 2.19, 3-(1,3-Benzoxazol-2-yl)-5-[6-(piperazin-1-yl)-3-pyridyl]pyridin-2-amine]  99.8%

Same assay, conditions: test compound at 30 μM

`CN(C)S(=O)(=O)c1cccc(-c2cnc(N)c(-c3nc4ccccc4o3)c2)c1` [Example 2.39] was tested, and the “% of Axl tyrosine kinase activity inhibited at a concentration of 30 μM” value was “*the compound disclosed in Example 2.39 inhibited 58.6% of Axl tyrosine kinase activity at a concentration of 30 μM”.
For `Nc1ncc(-c2ccc3c(c2)OCO3)cc1-c1nc2ccccc2o1` [Example 2.42], the “% of Axl tyrosine kinase activity inhibited at a concentration of 30 μM” value was “**the compound disclosed in Example 2.42 inhibited 53.6% of Axl tyrosine kinase activity at a concentration of 30 μM”.
`Nc1ncc(-c2cccc3ccccc23)cc1-c1nc2ccccc2o1` [Example 2.43] was tested, and the “% of Axl tyrosine kinase activity inhibited at a concentration of 30 μM” value was “***the compound disclosed in Example 2.43 inhibited 57% of Axl tyrosine kinase activity at a concentration of 30 μM”.
In the case of `CN1CCN(c2cccc(-c3cnc(N)c(-c4nc5ccccc5o4)c3)c2)CC1` [Example 2.53], the “% of Axl tyrosine kinase activity inhibited at a concentration of 30 μM” value is reported as “****the compound disclosed in Example 2.53 inhibited 82% of Axl tyrosine kinase activity at a concentration of 30 μM”.
